Data: patent US9308238B2, “Compositions and methods for modulating EMT and uses thereof” (Whitehead Institute for Biomedical Research, priority 2010, dated 2016)

What was measured:
HTwist and MSP cells [1] = assay: Boyden chamber migration assay, HTwist and MSP cells; type: cell-based, human; conditions: for effect on migration: 10 μM, to a similar extent as added BMP4 protein
Method: (§1) FIGS. 3A-3E. Autocrine Signaling controls migration and mammosphere formation.
FIGS. 10A-10E. […] (FIG. 10C) Mammosphere assay: HTwist cells were treated daily during mammosphere formation (5 days) with proteins as described in (B); *control vs. single treatment, p<1×10^−5, **single vs. double-treatment, p<0.01, n(mammospheres)/1000 cells, n=6, (FIG. 10D) Migration Assay: HTwist and MSP cells were seeded into Boyden Chambers in the presence of TGF-beta Receptor I inhibitors A83-01 and SB431542 (SB43, both at 10 μM). (FIG. 10E) Mammosphere Assay: HTwist and MSP were treated daily during mammosphere formation (5 days) with BMP4 (0.5 μg/ml), SB431542 (10 μM) or a combination of both, n(mammospheres)/1000 cells, n=6.
Migration and invasion assays. For migration assays, 2×10^4 cells were seeded into 24-well cell culture inserts with 8-μm pores (Boyden Chambers, BD Falcon). For invasion assays, matrigel-coated inserts (BD Falcon) were used. After 12-48 hr, the cells on the upper surface of the filters were removed with a cotton swab. For visualization, cells on lower filter surfaces were fixed and stained with a Diff-Quick staining kit (Dade Behring).

HTwist and MSP cells [2] = assay: Mammosphere assay, HTwist and MSP cells; type: cell-based, human; conditions: 10 μM; to a similar extent as added BMP4 protein
Method: FIGS. 10A-10E. […] (FIG. 10E) Mammosphere Assay: HTwist and MSP were treated daily during mammosphere formation (5 days) with BMP4 (0.5 μg/ml), SB431542 (10 μM) or a combination of both, n(mammospheres)/1000 cells, n=6.
(§2) Mammosphere and tumorsphere assay. Assays were performed as previously described with modifications (Dontu et al., 2003): 1000 cells/well were seeded in 96-well ultra-low adhesion plates (Corning) in MEGM medium containing 1.3% methylcellulose (Stem Cell Technologies) supplemented with 20 ng/ml EGF, 10 ng/ml bFGF (both Sigma) and B27 (Gibco). Primary spheres were dissociated by trypsinization and replated for secondary sphere formation after a period of 5-7 days.

26 other kinases = conditions: cited from earlier work
GSK3 = conditions: ATP-competitive manner; cited from earlier work
PKA = conditions: at >100 μM; cited from earlier work
CK-II = conditions: at >100 μM; cited from earlier work
PKC = conditions: at >100 μM; cited from earlier work
Cdk-1/cyclin B = conditions: at >100 μM; cited from earlier work
HMLE^24+ cells = assay: Boyden chamber migration assay, HMLE^24+ cells; type: cell-based, human; conditions: 0.5 μg/ml in growth medium
Method: as §1
FIGS. 5A-5H. Concomitant stimulation of Wnt and TGF-beta pathways allows HMLE^24+ cells to enter into a mesenchymal and SC-like state. (FIG. 5A) RT-PCR: N-Cadherin, Zeb1 and Zeb2, L32 was loading control, n=3. Prior RNA isolation, HMLE^24+-shGFP or -shSFRP1 (stable knockdown of SFRP1, FIG. 12A) cells were treated for 3 days with daily doses of indicated factors: anti-DKK1 antibody (10 μg/ml), anti-E-Cadherin antibody (1 μg/ml), TGF-beta 1 (5 ng/ml), Wnt5a (250 ng/ml), (FIG. 5B) Brightfield microscopy: images of control, TGF-beta- and iEMT-cocktail treated HMLE^24+ cells after 14 days of treatment as indicated (see also FIG. 12D). (FIG. 5C) RT-PCR: Zeb1, Zeb2, E-Cadherin and N-Cadherin, L32 was loading control, n=3. After 14 day treatment, cells were expanded in absence of further stimulation for 4 passages. Shown are PBS-treated control HMLE^24+-shGFP and HMLE^24+-shSFRP1 cells, two HMLE^24+-shGFP cultures treated with TGF-beta 1 (TGF-β-a and -b), two HMLE^24+-shSFRP1 cultures treated with the iEMT-cocktail (iEMT-a and -b). (FIG. 5D) Immunoblot: EMT markers and associated autocrine pathways, cells generated as described in (C). (FIG. 5E) Migration (Boyden Chamber Assay) and Mammosphere Assay: cells generated as indicated in (C), *control vs. TGF-beta treatment, p<1×10^−4, **control vs. iEMT-treatment, p<1×10^−9, n(migration)=3, n(mammospheres)/1000 cells, n=7. (FIG. 5F) Flow cytometry: CD44 and CD24 cell-surface marker expression in control, TGF-beta-a and iEMT-a cells generated as described in (C). (FIG. 5G) Lung metastasis: cells expanded for 8 passages after cessation of treatment as described in (C) were transformed with RAS; 1.0×10^5 cells were injected into the mammary fat pads of mice; GFP-labeled metastases on the surface of the lungs were quantified; *control vs. all other groups, p<0.05, n=5 mice/group. […]

MSP cells = assay: Mammosphere assay, MSP cells; type: cell-based, human; conditions: added daily for 5 days (FIG. 3D)
Method: as §1, §2

Cc1cccc(-c2nn(C(=S)Nc3ccccc3)cc2-c2ccnc3ccccc23)n1 [A83-01, reference compound]
effect on migration (HTwist and MSP cells [1]): attenuated | effect on mammosphere formation (HTwist and MSP cells [2]): attenuated

NC(=O)c1ccc(-c2nc(-c3ccc4c(c3)OCO4)c(-c3ccccn3)[nH]2)cc1 [SB431542, reference compound]
effect on migration (HTwist and MSP cells [1]): attenuated | effect on mammosphere formation (HTwist and MSP cells [2]): attenuated

COc1ccc(CNC(=O)Nc2ncc([N+](=O)[O-])s2)cc1 [AR-A014418, N-(4-Methoxybenzyl)-N′-(5-nitro-1,3-thiazol-2-yl)urea]
inhibition of 26 other kinases (26 other kinases): does not significantly inhibit | Ki (GSK3): […]

Cn1sc(=O)n(Cc2ccccc2)c1=O [TDZD-8, 4-Benzyl-2-methyl-1,2,4-thiadiazolidine-3,5-dione]
inhibition of PKA (PKA): does not inhibit | inhibition of CK-II (CK-II): does not inhibit | inhibition of PKC (PKC): does not inhibit | inhibition of Cdk-1/cyclin B (Cdk-1/cyclin B): does not inhibit

B1: DKK1: Recombinant human DKK1 protein (R&D Systems), secreted antagonist of canonical Wnt pathway (protein, UniProt O94907 32-266, looked up)
Dickkopf-related protein 1: TLNSVLNSNAIKNLPPPLGGAAGHPGSAVSAAPGILYPGGNKYQTIDNYQPYPCAEDEECGTDEYCASPTRGGDAGVQICLACRKRRKRCMRHAMCCPGNYCKNGICVSSDQNHFRGEIEETITESFGNDHSTLDGYSRRTTLSSKMYHTKGQEGSVCLRSSDCASGLCCARHFWSKICKPVLKEGQVCTKHRRKGSHGLEIFQRCYCGEGLSCRIQKDHHQASNSSRLHTCQRH
motility of HMLE^24+ cells upon addition of protein (HMLE^24+ cells): not further reduced | reduction of migration (HTwist and MSP cells [1]; at the highest concentration): 10 fold | reduction of primary mammosphere number (MSP cells): 20%
